Data set [1] can be described thus: Antiproliferative activity against mouse J774.1 cells after 48 hrs by alamar blue assay. It is filed as cell-based.
The test system of data set [2] is Leishmania major. Description: Antileishmanial activity against Leishmania major MHOM/IL/81/FE/BNI promastigotes by alamar blue assay. It is filed as functional, organism-based. A general note: Alamar Blue is a resazurin reagent that responds to reducing activity.
Data set [3] in a line: Selectivity index, ratio of IC50 for mouse J774.1 cells to IC50 for Leishmania major MHOM/IL/81/FE/BNI promastigotes. The data set is classed as toxicity. Particulars: for selectivity ratio: J774.1 cells, read-out: Ratio IC50; call rule not given here.
Data set [4] has as its target Albumin (Bos taurus, UniProt P02769). Description: Binding affinity to bovine serum albumin by ultrafiltration method. The note with it: cattle, bovine serum albumin; read-out: PPB (converted). It is filed as ADME.
The nature of data set [5]: Ratio of IC50 for BALB/c mouse peritoneal macrophages to EC50 for Leishmania major MHOM/IL/81/FE/BNI promastigotes.
Data set [6] in a line: Cytotoxicity against BALB/c mouse peritoneal macrophages after 48 hrs by alamar blue assay. The note with it: Macrophage. The data set is classed as cell-based.
In data set [7] the test system is Leishmania major. Description: Antileishmanial activity against Leishmania major MHOM/IL/81/FE/BNI promastigotes infected in BALB/c mouse peritoneal macrophages assessed as decrease in infection rate after 48 hrs by fluorescence microscopy. The data set is classed as functional, organism-based.
Data set [8] addresses Cytochrome P450 2C9 (Homo sapiens, UniProt P11712). Description: Inhibition of human CYP2C9 at 100 uM by LC/ESI-MS analysis. It is filed as ADME.
Data set [9] deals with Cytochrome P450 2C19 (Homo sapiens, UniProt P33261). Description: Inhibition of human CYP2C19 at 100 uM by LC/ESI-MS analysis. The data set is classed as ADME.

A value given as a limit tells only on which side of the number the result lay.

Sequence of Albumin (P02769 whole entry): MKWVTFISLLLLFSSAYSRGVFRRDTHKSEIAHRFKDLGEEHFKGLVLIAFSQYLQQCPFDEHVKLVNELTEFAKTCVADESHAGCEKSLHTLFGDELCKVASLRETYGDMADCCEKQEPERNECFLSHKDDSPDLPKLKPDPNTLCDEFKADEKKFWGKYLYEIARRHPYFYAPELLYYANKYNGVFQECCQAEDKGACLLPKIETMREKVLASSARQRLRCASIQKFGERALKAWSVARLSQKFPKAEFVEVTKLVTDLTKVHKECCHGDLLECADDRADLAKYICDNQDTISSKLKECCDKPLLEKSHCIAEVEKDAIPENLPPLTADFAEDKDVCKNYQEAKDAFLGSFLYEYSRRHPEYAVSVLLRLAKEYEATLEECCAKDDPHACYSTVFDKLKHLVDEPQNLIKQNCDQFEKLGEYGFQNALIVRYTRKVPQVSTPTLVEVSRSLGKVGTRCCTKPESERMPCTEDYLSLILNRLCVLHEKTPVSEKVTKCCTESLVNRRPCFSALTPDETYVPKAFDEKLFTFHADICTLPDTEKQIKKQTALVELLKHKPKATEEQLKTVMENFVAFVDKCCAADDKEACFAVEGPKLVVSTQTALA
Sequence of Cytochrome P450 2C9 (P11712 whole entry): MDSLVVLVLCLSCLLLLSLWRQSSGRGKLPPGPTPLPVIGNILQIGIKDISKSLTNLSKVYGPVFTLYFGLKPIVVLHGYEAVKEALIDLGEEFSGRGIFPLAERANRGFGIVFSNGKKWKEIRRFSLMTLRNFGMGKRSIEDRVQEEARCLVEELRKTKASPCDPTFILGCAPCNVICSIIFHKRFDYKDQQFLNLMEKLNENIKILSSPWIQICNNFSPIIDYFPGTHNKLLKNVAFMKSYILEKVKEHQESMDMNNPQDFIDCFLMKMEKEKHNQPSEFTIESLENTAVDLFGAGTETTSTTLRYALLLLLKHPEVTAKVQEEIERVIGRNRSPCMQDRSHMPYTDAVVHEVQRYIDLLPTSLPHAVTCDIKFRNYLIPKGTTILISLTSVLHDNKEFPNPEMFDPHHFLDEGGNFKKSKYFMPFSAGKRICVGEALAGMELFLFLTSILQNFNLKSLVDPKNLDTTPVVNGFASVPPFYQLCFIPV
Sequence of Cytochrome P450 2C19 (P33261 whole entry): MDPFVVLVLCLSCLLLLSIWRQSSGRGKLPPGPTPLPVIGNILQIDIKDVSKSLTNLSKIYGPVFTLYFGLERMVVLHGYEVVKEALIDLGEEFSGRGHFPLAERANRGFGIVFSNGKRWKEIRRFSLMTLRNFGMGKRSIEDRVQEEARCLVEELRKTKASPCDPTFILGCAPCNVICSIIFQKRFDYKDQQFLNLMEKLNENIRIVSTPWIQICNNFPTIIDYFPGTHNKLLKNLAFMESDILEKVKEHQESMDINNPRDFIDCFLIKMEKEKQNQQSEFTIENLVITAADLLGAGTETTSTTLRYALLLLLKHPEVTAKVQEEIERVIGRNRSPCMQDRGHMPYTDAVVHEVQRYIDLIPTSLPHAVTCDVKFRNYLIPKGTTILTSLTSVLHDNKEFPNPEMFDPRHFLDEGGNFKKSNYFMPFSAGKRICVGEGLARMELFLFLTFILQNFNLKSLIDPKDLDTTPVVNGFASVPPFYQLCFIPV

Take `COc1cc(OC)c2c(C)[n+](-c3ccc4ncccc4c3)c(C)cc2c1`: the IC50 in data set [1] (Mus musculus, J774.1, 48 h) is over 100 µM; in [2] (Leishmania major), over 100 µM.
`COc1cc(OC)c2c(C)[n+](-c3ccc4ccccc4c3)c(C)cc2c1`: in [3], the selectivity ratio came to 2.41. The IC50 was determined as 8.13 µM in [1] (Mus musculus, J774.1, 48 h) and 3.37 µM in data set [2] (Leishmania major).
`COc1cc(OC)c2c(C)[n+](-c3c(C)cc(C)cc3C)c(C)cc2c1`: the selectivity ratio in [3] worked out at 2.82. Moreover, the IC50 in data set [1] (Mus musculus, J774.1, 48 h) worked out at 4.2 µM; in data set [2] (Leishmania major), 1.49 µM.
In the case of `CCc1ccc(-[n+]2c(C)cc3cc(OC)cc(OC)c3c2C)cc1`, the selectivity ratio in [3] was under 1. Also, the fraction unbound in data set [4] is 0.475. Besides, the IC50 was determined as 4.5 µM in data set [1] (Mus musculus, J774.1, 48 h) and 5.53 µM in [2] (Leishmania major).
For the compound `COc1cc2c(c(OC)c1)C(C)N(c1ccc(OC)c3c(OC)cc(C)cc13)[C@@H](C)C2` (mixture of isomers), the IC50 is over 100 µM in [1] (Mus musculus, J774.1, 48 h) and 64.8 µM in data set [2] (Leishmania major).
On to `COc1cc(OC)c2c(C)[n+](-c3cccc4cc5ccccc5cc34)c(C)cc2c1`, for which the selectivity ratio in [3] was under 1. Moreover, the IC50 in data set [1] (Mus musculus, J774.1, 48 h) worked out at 1.69 µM; in data set [2], 1.85 µM.
As to `CCCCc1ccc(-[n+]2c(C)cc3cc(OC)cc(OC)c3c2C)cc1`, the selectivity ratio in [3] is under 1. Further, the IC50 in data set [1] (Mus musculus, J774.1, 48 h) was found to be 4.47 µM; in [2] (Leishmania major) it was 2.69 µM.
For the compound `COc1cc2c(c(OC)c1)C(C)N(c1ccc(OC)c3c(OC)cc(C)cc13)[C@H](C)C2` (mixture of isomers), the IC50 in data set [1] (Mus musculus, J774.1, 48 h) was over 100 µM; in data set [2] (Leishmania major), 66.7 µM.
Taken in the same sequence, the figures for `COc1cc2c(c(OC)c1)C(C)N(c1ccc(C(C)C)cc1)C(C)C2` (stereo not drawn) were 74.7 µM and 49.9 µM.
On to `COc1cc(OC)c2c(C)[n+](-c3ccc4cc5ccccc5cc4c3)c(C)cc2c1`, for which the selectivity ratio in data set [3] was under 1. The IC50 is 0.23 µM in data set [1] (Mus musculus, J774.1, 48 h) and 0.67 µM in [2] (Leishmania major).
Consider `COc1ccc(-[n+]2c(C)cc3cc(OC)cc(OC)c3c2C)cc1`, for which the IC50 in data set [1] (Mus musculus, J774.1, 48 h) is over 100 µM; in data set [2] (Leishmania major), over 100 µM.
On to `COc1cc2c(c(OC)c1)C(C)N(c1cccc3ccccc13)C(C)C2` (stereo not drawn), for which the IC50 is over 100 µM in data set [1] (Mus musculus, J774.1, 48 h) and 65.6 µM in data set [2] (Leishmania major).
On to `COc1cc(OC)c2c(C)[n+](-c3ccc(C)cc3C)c(C)cc2c1`, for which the selectivity ratio in [3] came to 1.24. Besides, the IC50 in data set [1] (Mus musculus, J774.1, 48 h) was 4.07 µM; in data set [2] (Leishmania major) it was 3.28 µM.
As for `COc1cc(OC)c2c(C)[n+](-c3cccc4ccccc34)c(C)cc2c1`, the selectivity ratio in data set [3] is 2.63. Moreover, the IC50 in [1] (Mus musculus, J774.1, 48 h) came to 4.29 µM; in [2] (Leishmania major) it was 1.63 µM.
For the compound `C[C@@H]1[C@H](O)[C@@H](C)/C=C/C=C/C=C/C=C/C=C/C=C/C=C/[C@H](O[C@@H]2O[C@H](C)[C@@H](O)[C@H](N)[C@@H]2O)C[C@@H]2O[C@](O)(C[C@@H](O)C[C@@H](O)[C@H](O)CC[C@@H](O)C[C@@H](O)CC(=O)O[C@H]1C)C[C@H](O)[C@H]2C(=O)O` [AMPHOTERICIN B], in data set [5], the “Ratio IC50/EC50” value is reported as over 1000. For the same compound, the IC50 in data set [6] is over 70 µM; in data set [1] (Mus musculus, J774.1, 48 h), over 70 µM; in data set [2] (Leishmania major) it was 5.07 µM. The selectivity ratio in data set [3] was over 14. Also, in data set [7], the concentration giving a half-maximal response (EC50) was 0.075 µM.
As for `COc1cc(OC)c2c(C)[n+](-c3cccc(C)c3C)c(C)cc2c1`, in data set [3], the selectivity ratio was under 1. Also, the IC50 in data set [1] (Mus musculus, J774.1, 48 h) is 10.5 µM; in data set [2] (Leishmania major), 11.6 µM.
As to `COc1cc(OC)c2c(C)[n+](-c3ccc(C#N)cc3)c(C)cc2c1`, the half-inhibitory concentration (IC50) was over 100 µM in data set [1] (Mus musculus, J774.1, 48 h) and over 100 µM in data set [2] (Leishmania major).
Take `COc1cc(OC)c2c(C)[n+](-c3ccc(Cl)cc3)c(C)cc2c1`: the selectivity ratio in [3] is under 1. Further, the IC50 in [1] (Mus musculus, J774.1, 48 h) turned out to be 3.05 µM; in [2] (Leishmania major) it was 18.9 µM.
In the case of `COc1cc(OC)c2c(C)[n+](-c3ccc(C(C)C)cc3C(C)C)c(C)cc2c1`, in data set [3], the selectivity ratio stood at 4.17. The fraction unbound in data set [4] is 0.416. Moreover, the IC50 worked out at 2.25 µM in data set [1] (Mus musculus, J774.1, 48 h) and 0.54 µM in data set [2] (Leishmania major).
For `COc1cc(OC)c2c(C)[n+](-c3ccc(Br)cc3)c(C)cc2c1`, the selectivity ratio in data set [3] was under 1. Further, the IC50 in data set [1] (Mus musculus, J774.1, 48 h) was 2.97 µM; in [2] (Leishmania major) it was 19.7 µM.
Regarding `CCCc1ccc(-[n+]2c(C)cc3cc(OC)cc(OC)c3c2C)cc1`, in data set [3], the selectivity ratio worked out at 1.14. For the same compound, the IC50 in [1] (Mus musculus, J774.1, 48 h) amounted to 5.36 µM; in [2] (Leishmania major) it was 1.63 µM.
Regarding `COc1cc(OC)c2c(C)[n+](-c3ccc(C(C)(C)C)cc3)c(C)cc2c1`, the selectivity ratio in data set [3] worked out at 1.6. The IC50 in [1] (Mus musculus, J774.1, 48 h) came to 4.28 µM; in data set [2] (Leishmania major), 2.67 µM.
`COc1cc(OC)c2c(C)[n+](-c3cccc4c3C(=O)c3ccccc3C4=O)c(C)cc2c1`: the IC50 was over 100 µM in [1] (Mus musculus, J774.1, 48 h) and over 100 µM in [2] (Leishmania major).
Regarding `COc1cc(OC)c2c(C)[n+](-c3ccc4scnc4c3)c(C)cc2c1`, the fraction unbound in data set [4] was 0.671. Further, the IC50 in data set [1] (Mus musculus, J774.1, 48 h) was 63.2 µM; in data set [2] (Leishmania major), over 100 µM.
For `COc1cc(OC)c2c(C)[n+](-c3ccc(O)cc3)c(C)cc2c1`, the IC50 was over 100 µM in [1] (Mus musculus, J774.1, 48 h) and 15.9 µM in data set [2] (Leishmania major).
Consider `C=C[C@H]1C[N@@]2CC[C@H]1C[C@@H]2[C@@H](O)c1ccnc2ccc(OC)cc12` [QUINIDINE], for which the result in data set [8] and in [9] was Active.
For the compound `COc1cc(OC)c2c(C)[n+](-c3cccc4cc5ccccc5cc34)c(C)cc2c1.F[B-](F)(F)F`, in data set [3], the “Ratio IC50” value was under 1. The figures for the IC50 in data set [1] (j774.1) and in data set [2] were 2.95 µM and 0.72 µM, respectively.
Turning to `COc1cc(OC)c2c(C)[n+](-c3ccc(OC(C)=O)cc3)c(C)cc2c1`, the IC50 in data set [1] (Mus musculus, J774.1, 48 h) was over 100 µM; in [2] (Leishmania major), over 100 µM.

As usually defined, the IC50 is the concentration needed to halve the response being measured. A low value points to greater potency. As a reminder, the EC50 is the midpoint of the concentration-response curve.

The record behind these values is ChEMBL document CHEMBL1143311, “Structure-activity relationship and studies on the molecular mechanism of leishmanicidal N,C-coupled arylisoquinolinium salts” (J Med Chem, 2009).
